{"source": "patent US9771625B2", "about": "“Monoamine oxidase inhibitors and methods for treatment and diagnosis of prostate cancer” (UNIVERSITY OF SOUTHERN CALIFORNIA, priority 2011, dated 2017)", "key": {"MAO A": {"molecular_target": "T1, MAO A (Homo sapiens, UniProt P21397)", "T1 construct": "This cell line was selected due to its high levels of the expressed MAO-A; endogenous in cells; host or cells: C4-2B human prostate cancer cells", "T1 sequence (P21397 1-527)": "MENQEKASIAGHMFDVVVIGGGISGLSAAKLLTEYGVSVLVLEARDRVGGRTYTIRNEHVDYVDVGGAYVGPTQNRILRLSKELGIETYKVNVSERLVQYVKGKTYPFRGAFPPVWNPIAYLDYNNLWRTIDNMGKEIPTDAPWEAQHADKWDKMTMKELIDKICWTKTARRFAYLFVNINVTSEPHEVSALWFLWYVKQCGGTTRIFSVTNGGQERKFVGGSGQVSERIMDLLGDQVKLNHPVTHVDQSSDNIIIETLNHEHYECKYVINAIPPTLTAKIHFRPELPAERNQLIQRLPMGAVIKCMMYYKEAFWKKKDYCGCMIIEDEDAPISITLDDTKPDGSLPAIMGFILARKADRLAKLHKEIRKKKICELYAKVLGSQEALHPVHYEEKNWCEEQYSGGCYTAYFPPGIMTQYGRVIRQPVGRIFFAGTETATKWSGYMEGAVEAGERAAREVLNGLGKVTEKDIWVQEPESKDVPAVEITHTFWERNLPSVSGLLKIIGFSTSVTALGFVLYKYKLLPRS", "assay": "MAO A inhibition assay in C4-2B cells with radiolabeled substrate (C-14 serotonin)", "type": "cell-based", "procedure": "Compound 10 was pre-incubated with 1×10^6 prostate C4-2B cells at 37° C. for 20 min. Then, MAO A substrate C-14 serotonin was added to the incubation solution for 37° C. 20 min. At the end of the incubation, the reaction product was extracted and the radioactivity was counted. The MAO-A activity was expressed as […] product formed/20 min/mg protein. The activity without the presence of inhibitor, compound 10, was taken as 100%.\nIn order to test an inhibitory activity of the MHI-clorgyline 10, a standard MAO A inhibition assay was carried out in C4-2B cells using radiolabeled substrates."}, "[1]": {"system": "C4-2B prostate cancer cells", "assay": "Laser-scanning confocal NIR imaging of cellular uptake and localization", "type": "cell-based, human", "conditions": "C4-2B PCa cells", "excerpt": "Moreover, the two dyes also have strong emission at 820-860 nm upon excitation at 750-780 nm, which can be easily detected and visualized by NIR imaging equipment and laser-scanning confocal microscopes. Here, we resorted to the use of Zeiss LSM 510 confocal microscope as the imaging equipment. Although cellular uptake of the conjugate was uncertain, due to the similarity in structure, MHI-clorgyline conjugates were expected to have similar fluorescence properties as the NIR dye itself. Therefore, NIR imaging with laser-scanning confocal microscope was used to examine the cellular uptake of MHI-clorgyline in human prostate epithelial cancer cells (C4-2B). This cell line was selected due to its high levels of the expressed MAO-A.\n(§1) An imaging study with the newly synthesized MHI-clorgyline 10 was carried out (FIG. 11)."}, "live cells": {"system": "live cells", "assay": "Preliminary imaging study of IR-783 dye in live cells", "type": "cell-based", "procedure": "as §1"}, "[2]": {"system": "tumor xenografts and spontaneous tumors in transgenic mice", "conditions": "cited from earlier work"}, "[3]": {"system": "control and MAO-A-overexpressing PC-3 tumor xenografts", "assay": "In vivo and ex vivo MHI-148 NIR imaging of PC-3 tumor xenografts", "parameters": "species or system nude mice", "excerpt": "FIG. 19 MAO-A enhanced NIR dye uptake in PC-3 tumor xenografts. (A) Representative in vivo MHI-148 NIR imaging (i.p. injection, 10 nmol/20 g) of nude mice subcutaneously implanted with control (left flank) and MAO-A-overexpressing (right flank) PC-3 cells. Arrows point to tumor xenografts. […] (C) Quantitation of tumor NIR intensity in (A) by determining total emission divided by tumor weight (5 mice). *, p<0.05.\nA class of fluorescent heptamethine cyanines with near-infrared (NIR) emission maxima, such as MHI-148 dye, which has been identified recently, are non-toxic and have dual functions as tumor-specific targeting and imaging modalities. These dyes, partially mediated by hypoxia, are specifically retained in cancer but not normal cells, and also in tumor xenografts as well as spontaneous tumors in transgenic mice. […] This would allow the development and validation of novel PCa-seeking MAO-A inhibitors with acquired synergistic tumor-targeting abilities as new agents for PCa therapies with minimal systemic host toxicity."}, "[4]": {"system": "human prostate cancer cells", "assay": "Growth of prostate cancer cells in vitro", "type": "cell-based", "excerpt": "(§2) In the present invention, it was unexpectedly discovered that increase of MAO-A activity or expression is correlated with the progression of human prostate cancer. […] This finding establishes MAOs as a target for cancer."}, "tumor xenografts": {"system": "tumor xenografts", "assay": "Growth of tumor xenografts in vivo", "excerpt": "as §2"}}, "note": "pIC50: −log10 of the molar value."}
{"compound": "C#CCN(CCCOc1ccc(Cl)cc1Cl)CCCSC(=O)CCCCCN1/C(=C\\C=C2/CCCC(/C=C/C3=[N+](CCCCCC(=O)O)c4ccccc4C3(C)C)=C2Cl)C(C)(C)c2ccccc21", "note": "[Compound 10]", "values": [{"measurement": "pIC50", "setting": "MAO A; 37° C., 20 min pre-incubation, C-14 serotonin substrate", "result": 4.66}, {"measurement": "MAO A inhibitory activity compared with clorgyline", "setting": "MAO A; data not shown", "result": "lesser than that of clorgyline itself"}, {"measurement": "subcellular localization", "setting": "[1]; co-staining with mitochondria-specific dye", "result": "localized in the mitochondria"}, {"measurement": "cellular accumulation", "setting": "[1]; confocal imaging", "result": "rapid accumulation"}]}
{"compound": "CC1(C)C(=CC=C2CCCC(C=CC3=[N+](CCCCS(=O)(=O)[O-])c4ccccc4C3(C)C)=C2Cl)N(CCCCS(=O)(=O)[O-])c2ccccc21.[Na+]", "note": "[IR-783]", "values": [{"measurement": "subcellular localization", "setting": "live cells", "result": "co-localized in mitochondria"}, {"measurement": "retention in cancer cells versus normal cells", "setting": "[2]", "result": "retained in cancer cells but not normal cells"}]}
{"compound": "CC1(C)C(/C=C/C2=C(Cl)C(=C/C=C3/N(CCCCCC(=O)O)c4ccccc4C3(C)C)/CCC2)=[N+](CCCCCC(=O)O)c2ccccc21", "note": "[MHI-148]", "values": [{"measurement": "NIR dye uptake in tumor xenografts", "setting": "[3]; MAO-A-overexpressing vs control PC-3 xenografts, i.p. injection, 10 nmol/20 g", "result": "enhanced uptake"}, {"measurement": "ex vivo NIR signal in tumor tissues versus organs", "setting": "[3]; ex vivo NIR imaging, nude mice with PC-3 xenografts", "result": "Tumor tissues but not organs displayed strong signals"}, {"measurement": "retention in cancer cells versus normal cells", "setting": "[2]", "result": "retained in cancer cells but not normal cells"}]}
{"compound": "C#CCN(C)CCCOc1ccc(Cl)cc1Cl", "note": "[clorgyline]", "values": [{"measurement": "growth of human prostate cancer cells", "setting": "[4]", "result": "repressing the growth"}, {"measurement": "growth of tumor xenografts", "setting": "tumor xenografts", "result": "repressing the growth"}]}
